Structures can show the parent of a compound that is named as a salt. A value given as a limit tells only on which side of the number the result lay.

What all share (type): biochemical
What all share (conditions): concentration required to double the clotting time

In assay [1] the test system is Human plasma. Nature of the assay: Human plasma anticoagulation, prothrombin time (PT). The method, then: (§1) Dog plasma and rat plasma is obtained from conscious mixed-breed hounds (either sex, Hazelton-LRE, Kalamazoo, Mich., U.S.A.) or from anesthetized male Sprague-Dawley rats (Harlan Sprague-Dawley, Inc., Indianapolis, Ind., U.S.A.) by venipuncture into 3.8 percent citrate. Fibrinogen is prepared from in-date ACD human blood as the fraction I-2 according to previous procedures and specifications. […] Human fibrinogen is also purchased as 98 percent pure/plasmin free from American Diagnostica, Greenwich, Conn. Coagulation reagents ACTIN, Thromboplastin, and Human plasma are from Baxter Healthcare Corp., Dade Division, Miami, Fla. Bovine thrombin from Parke-Davis ([…], Mich.) is used for coagulation assays in plasma.
(§2) Coagulation assay procedures are as previously described. […] A CoAScreener coagulation instrument (American LABor, Inc.) is used for all coagulation assay measurements. The prothrombin time (PT) is measured by adding 0.05 mL saline and 0.05 mL Thromboplastin-C reagent to 0.05 mL test plasma. The activated partial thromboplastin time (APTT) is measured by incubation of 0.05 mL test plasma with 0.05 mL Actin reagent for 120 seconds followed by 0.05 mL CaCl2 (0.02M). The thrombin time (TT) is measured by adding 0.05 mL saline and 0.05 mL thrombin (10 NIH units/mL) to 0.05 mL test plasma. The compounds of Formula I are added to human or animal plasma over a wide range of concentrations to determine prolongation effects on the APTT, PT, and TT assays. Linear extrapolations are performed to estimate the concentrations required to double the clotting time for each assay.

Assay [2] has as its system Human plasma. Nature of the assay: Human plasma anticoagulation, thrombin time (TT). The method, then: as §1, §2
Assay [3] relates to Human plasma. Nature of the assay: Human plasma anticoagulation, activated partial thromboplastin time (APTT). The method, then:
as §1, §2

For the compound `Nc1ccc(CNC(=O)[C@@H]2CCCN2C(=O)[C@@H](CC2CCCCC2)NCC(=O)O)cc1F` [Example 77, HO2 CCH2 -D-Cha-Pro-4-NHCH2 -2-F-aniline.HCl], the “2x Clotting time PT” value in assay [1] is 890 ng/mL. For the same compound, the “2x Clotting time TT” value in assay [2] was determined as 53 ng/mL. Besides, the “2x Clotting time APTT” value in assay [3] was 1,600 ng/mL.
On the same counts, the results for `N=C(N)c1ccc(CNC(=O)[C@@H]2CCCN2C(=O)[C@@H](CC2CCCCC2)NCC(=O)O)nn1` [Example 69, HO2 CCH2 -D-Cha-Pro-3-NHCH2 -6-amidinopyridazine.HCl] are 220 ng/mL, 5. ng/mL and 110 ng/mL.
For `Nc1cc(CNC(=O)[C@@H]2CCCN2C(=O)[C@@H](CC2CCCCC2)NCC(=O)O)ccn1` [Example 73, HO2 CCH2 -D-Cha-Pro-4-NHCH2 -2-aminopyridine.HCl], the “2x Clotting time PT” value in assay [1] is 330 ng/mL. The “2x Clotting time TT” value in assay [2] was 21 ng/mL. Besides, the “2x Clotting time APTT” value in assay [3] is reported as 340 ng/mL.
On the same counts, the results for `N=C(N)C1CCC(CNC(=O)[C@@H]2CCCN2C(=O)[C@@H](CC2CCCCC2)NCC(=O)O)NC1` (stereo partly drawn) [Example 67, HO2 CCH2 -D-Cha-Pro-2-NHCH2 -5-amidinopiperidine.HCl] are 1,300 ng/mL, 34. ng/mL and 1,800 ng/mL.
In the same order, the values of `N=C(N)N1CC=C(CNC(=O)[C@@H]2CCCN2C(=O)[C@@H](CC2CCCCC2)NCC(=O)O)CC1` [Example 70, HO2 CCH2 -D-Cha-Pro-4-NHCH2 -1-amidino-3,4-dehydro-piperidine.HCl] are 180 ng/mL, 2 ng/mL and 160 ng/mL.
Take `Nc1cc(CCNC(=O)[C@@H]2CCCN2C(=O)[C@@H](CC2CCCCC2)NCC(=O)O)ccn1` [Example 76, HO2 CCH2 -D-Cha-Pro-4-NHCH2 CH2 -2-aminopyridine.HCl]: the “2x Clotting time PT” value in assay [1] was found to be 560 ng/mL. Besides, the “2x Clotting time TT” value in assay [2] is reported as 29 ng/mL. The “2x Clotting time APTT” value in assay [3] stood at 490 ng/mL.
In the same order, the values of `N=C(N)C1=CNC(CNC(=O)[C@@H]2CCCN2C(=O)[C@@H](CC2CCCCC2)NCC(=O)O)CC1` (stereo partly drawn) [Example 68, HO2 CCH2 -D-Cha-Pro-2-NHCH2 -5-amidino-5,6-dehydro-piperidine.HCl] are 190 ng/mL, 4. ng/mL and 49 ng/mL.
In the same order, the values of `CCS(=O)(=O)N[C@H](CC1CCCCC1)C(=O)N1CCC[C@H]1C(=O)NCc1ccnc(N)c1` [Example 83, EtSO2 -D-Cha-Pro-4-NHCH2 -2-aminopyridine.HCl] are 1,300 ng/mL, 91 ng/mL and 1,000 ng/mL.
On the same counts, the results for `CCS(=O)(=O)N[C@H](Cc1ccccc1)C(=O)N1CCC[C@H]1C(=O)NCCCc1cccc(C(=N)N)c1` [Example 31, EtSO2 -D-Phe-Pro-m-NHCH2 CH2 CH2 -C6 H4 C(=NH)NH2.HCl] are 30,000 ng/mL, 10,800 ng/mL and 34,500 ng/mL.
For `CCC(CC)C(=O)N[C@@H](CCC(=O)O)C(=O)N1CCC[C@H]1C(=O)NCc1ccc(C(=N)N)cc1` [Example 90, (C2 H5)2 CHCO-Glu-Pro-p-NHCH2 C6 H4 C(NH)NH2.HCl], in assay [1], the “2x Clotting time PT” value is 14,600 ng/mL. The “2x Clotting time TT” value in assay [2] amounted to 330 ng/mL. The “2x Clotting time APTT” value in assay [3] is on record as 14,500 ng/mL.
In the same order, the values of `CCS(=O)(=O)N[C@H](CC1CCCCC1)C(=O)N1CCC[C@H]1C(=O)NCc1ccc(N)cc1F` [Example 82, EtSO2 -D-Cha-Pro-4-NHCH2 -3-F-C6 H3 NH2.HCl] are 3,000 ng/mL, 130 ng/mL and 3,800 ng/mL.
In the same order, the values of `N=C(N)c1cccc(CCCNC(=O)[C@@H]2CCCN2C(=O)[C@@H]2NCC[C@@H]3CCCC[C@@H]32)c1` [Example 33, 1-Piq-Pro-m-NHCH2 CH2 CH2 -C6 H4 C(=NH)NH2.HCl] are 70,900 ng/mL, 18,900 ng/mL and 59,300 ng/mL.
On the same counts, the results for `N=C(N)c1ccc(CNC(=O)[C@@H]2CCCN2C(=O)[C@@H](CCC2CCCCC2)NCC(=O)O)cc1` [Example 88, HOOCCH2 -D-hCha-Pro-p-NHCH2 C6 H4 C(NH)NH2.HCl] are 200 ng/mL, 4 ng/mL and 100 ng/mL.
Turning to `N=C(N)c1ccc(CNC(=O)[C@@H]2CCCN2C(=O)[C@@H](CC2CCCCC2)NCCCC(=O)O)cc1` [Example 85, HOOCCH2 CH2 CH2 -D-Cha-Pro-p-NHCH2 C6 H4 C(NH)NH2.HCl], the “2x Clotting time PT” value in assay [1] is 197 ng/mL. Besides, the “2x Clotting time TT” value in assay [2] worked out at 4.9 ng/mL. Also, in assay [3], the “2x Clotting time APTT” value was 100 ng/mL.
On the same counts, the results for `CCC(CC)C(=O)N[C@@H](CCS(C)(=O)=O)C(=O)N1CCC[C@H]1C(=O)NCc1ccc(C(=N)N)cc1` [Example 91, (C2 H5)2 CHCO-Met(O2)-Pro-p-NHCH2 C6 H4 C(NH)NH2.HCl] are 3,500 ng/mL, 63 ng/mL and 3,000 ng/mL.
In the same order, the values of `Nc1ccc(CNC(=O)[C@@H]2CCCN2C(=O)[C@@H](CC2CCCCC2)NCC(=O)O)c(F)c1` [Example 64, HO2 CCH2 -D-Cha-Pro-4-NHCH2 -3-F-C6 H3 NH2.HCl] are 650 ng/mL, 23 ng/mL and 900 ng/mL.
On the same counts, the results for `N=C(N)c1cc(F)c(CNC(=O)[C@@H]2CCCN2C(=O)[C@@H](CC2CCCCC2)NCC(=O)O)c(F)c1` [Example 72, HO2 CCH2 -D-Cha-Pro-4-NHCH2 -3,5-F2 -benzamidine.HCl] are 160 ng/mL, 1 ng/mL and 160 ng/mL.
As to `N=C(N)c1ccc(CCNC(=O)[C@@H]2CCCN2C(=O)[C@@H]2NCC[C@@H]3CCCC[C@@H]32)cc1` [Example 28, 1-Piq-Pro-p-NHCH2 CH2 -C6 H4 C(=NH)NH2.2HCl], the “2x Clotting time PT” value in assay [1] is 8,300 ng/mL. Moreover, in assay [2], the “2x Clotting time TT” value was 520 ng/mL. Further, the “2x Clotting time APTT” value in assay [3] is recorded as 8,100 ng/mL.
Turning to `CCS(=O)(=O)N[C@H](Cc1ccccc1)C(=O)N1CCC[C@H]1C(=O)NCCCc1ccc(C(=N)N)cc1` [Example 30, EtSO2 -D-Phe-Pro-p-NHCH2 CH2 CH2 -C6 H4 C(=NH)NH2.HCl], the “2x Clotting time PT” value in assay [1] is given as 14,400 ng/mL. Besides, the “2x Clotting time TT” value in assay [2] is given as 1,000 ng/mL. Further, the “2x Clotting time APTT” value in assay [3] was 14,000 ng/mL.
For the compound `NCc1ccc(CNC(=O)[C@@H]2CCCN2C(=O)[C@@H](CC2CCCCC2)NCC(=O)O)cc1` [Example 78, HO2 CCH2 -D-Cha-Pro-4-NHCH2 C6 H4 CH2 NH2.HCl], the “2x Clotting time PT” value in assay [1] is recorded as 760 ng/mL. The “2x Clotting time TT” value in assay [2] was determined as 46 ng/mL. The “2x Clotting time APTT” value in assay [3] came to 430 ng/mL.
On the same counts, the results for `N=C(N)Nc1cccc(CNC(=O)[C@@H]2CCCN2C(=O)[C@@H]2NCC[C@@H]3CCCC[C@@H]32)c1` [Example 40, D-1-Piq-Pro-m-NHCH2 C6 H4 NHC(NH)NH2.2HCl] are > 91,000 ng/mL, 35,100 ng/mL and > 91,000 ng/mL.
On the same counts, the results for `Nc1ccc(CNC(=O)[C@@H]2CCCN2C(=O)[C@@H](CC2CCCCC2)NCC(=O)O)cn1` [Example 74, HO2 CCH2 -D-Cha-Pro-5-NHCH2 -2-aminopyridine.HCl] are 350 ng/mL, 20 ng/mL and 420 ng/mL.
Consider “HOOCCH2 -D-hPhe-Pro-p-NHCH2 C6 H4 C(NH)NH2.HCl [Example 87]”, for which the “2x Clotting time PT” value in assay [1] is given as 310 ng/mL. Moreover, the “2x Clotting time TT” value in assay [2] came to 9 ng/mL. Moreover, in assay [3], the “2x Clotting time APTT” value was 260 ng/mL.
In the same order, the values of `N=C(N)c1ccc(CNC(=O)[C@@H]2CCCN2C(=O)[C@H](NCC(=O)O)C2CCCCC2)cc1` [Example 86, HOOCCH2 -D-Chg-Pro-p-NHCH2 C6 H4 C(NH)NH2.HCl] are 180 ng/mL, 4 ng/mL and 81 ng/mL.
On the same counts, the results for `O=C(O)CN[C@H](CC1CCCCC1)C(=O)N1CCC[C@H]1C(=O)NCCC1CCNCC1` [Example 54, HO2 CCH2 -D-Cha-Pro-4-NHCH2 CH2 -piperidine.HCl] are 2,200 ng/mL, 140 ng/mL and 3,300 ng/mL.
On the same counts, the results for `O=C(O)CN[C@H](CC1CCCCC1)C(=O)N1CCC[C@H]1C(=O)NCCCC1CCNCC1` [Example 55, HO2 CCH2 -D-Cha-Pro-4-NHCH2 CH2 CH2 -piperidine.HCl] are > 91,000 ng/mL, 55,800 ng/mL and > 91,000 ng/mL.

The record behind these values is patent US5726159A, “Antithrombotic agents” (Eli Lilly and Company, priority 1995, dated 1998).
